Test results reported in PubChem BioAssay AID434987 (Southern Research Specialized Biocontainment Screening …, 2010).
Calls of active or inactive are those of the source. How the calls were made is not given here.

Tested on: M. tuberculosis H37Rv growth inhibition with meropenem
Experiment: dose response, H37Rv, with and without meropenem (AID 434987);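 further: growth over 7 days at 37 °C before Alamar Blue read on day 9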
[1] = M. tuberculosis H37Rv growth inhibition, measured here: IC50 without meropenem
[2] = M. tuberculosis H37Rv growth inhibition, measured here: IC90 without meropenem
[3] = measured here: IC90 with meropenem

Row | SMILES | IC50 | IC50 [1] [µM] | IC90 [2] [µM] | IC90 [3] [µM]
1 | O=C(NCc1ccc2c(c1)OCO2)Nc1ccc2ccccc2c1 | 78.3 µM (inactive) | > 100 | > 100 | > 100
2 | CCOC(=O)COc1nc(-c2ccc(Cl)cc2)cc(-c2ccco2)c1C#N | 3.82 µM | > 100 | > 100 | > 100
3 | CC(=O)Nc1ccc(SCC(=O)c2cc(C)n(CC(F)(F)F)c2C)cc1 | 47.7 µM (inactive) | 53.5 | > 100 | > 100
4 | O=C1NC(c2ccc(Br)cc2)Nc2sc3c(c21)CCC3 (stereo not given) | > 100 µM (inactive) | > 100 | > 100 | > 100
5 | COc1cc(/C=N/NC(N)=S)ccc1OC(=O)c1ccc(C)cc1 | > 100 µM (inactive) | > 100 | > 100 | > 100
6 | CC(C)(C)c1cc(Cc2ccccc2)[nH]n1 | 28.2 µM (inactive) | 43.1 | > 100 | > 100
7 | Cc1cccc(NC(=O)c2cc3ccccc3c(=O)o2)n1 | 37.9 µM | > 100 | > 100 | > 100
8 | COc1ccc(CNC(=O)C2CCN(S(=O)(=O)c3c(C)noc3/C=C/N(C)C)CC2)cc1 | > 100 µM (inactive) | > 100 | > 100 | > 100
9 | COc1ccc(OC)c(-c2cc(C(=O)Nc3c(C)nn(Cc4ccccc4C)c3C)no2)c1 | > 100 µM (inactive) | > 100 | > 100 | > 100
10 | Cc1ccc(C)c(N2CCN(CC3CC=CCC3)CC2)c1 (stereo not given) | 25.6 µM | 79.8 | > 100 | 60.7
11 | COCc1cc(=O)n2[nH]cc(-c3ccccc3)c2n1 | 10.1 µM | 41.4 | > 100 | 15.5
12 | Cc1cccc(C)c1OCC(=O)NNC(=O)CNC(=O)c1ccc(OC(F)F)cc1 | 88.3 µM (inactive) | > 100 | > 100 | 98.1
13 | O=C(C1=C[C@@H](c2ccc(Br)cc2)C[C@@H](OCc2ccc(CO)cc2)O1)N1CCN(Cc2ccc3c(c2)OCO3)CC1 | 79.3 µM (inactive) | > 100 | > 100 | > 100
14 | O=C(/C=C/c1cc(Br)ccc1F)OCC(=O)N1CCCC1 | > 100 µM (inactive) | > 100 | > 100 | > 100
15 | Nc1nc2ccccc2n1C(=O)c1cccs1 | 5.84 µM | 42.8 | > 100 | > 100
16 | COc1ccc([N+](=O)[O-])cc1NS(=O)(=O)c1ccc(Cl)c(C(=O)Nc2sc3c(c2C#N)CCCCC3)c1 | > 100 µM (inactive) | > 100 | > 100 | > 100
17 | Cn1c(SCC(=O)OC2CCCCC2)nnc1-c1ccc2c(c1)OCO2 | 7.93 µM | 30.5 | 70 | 34.9
18 | COc1ccc(C(=O)Nc2oc(-c3ccccc3)c(-c3ccccc3)c2C#N)cc1OC | 25.2 µM (inactive) | 38.7 | > 100 | > 100
19 | CCCc1c(C)nc2c(OC)cccc2c1SCC(=O)O | > 100 µM (inactive) | > 100 | > 100 | > 100
20 | Cc1ccc(C(=O)NCC2(c3ccccc3)CCCC2)cc1 | 75.3 µM (inactive) | > 100 | > 100 | > 100

Row | SMILES | IC50 | IC50 [1] [µM] | IC90 [2] [µM] | IC90 [3] [µM]
21 | O=c1c(O)c(-c2ccc3c(c2)OCO3)oc2ccccc12 | 2.12 µM | > 100 | > 100 | > 100
22 | Cc1cc(=O)[nH]c(N/N=C/c2c(F)c(F)c(F)c(F)c2F)n1 | 64.6 µM (inactive) | 92.1 | > 100 | 82.3
23 | OCCCn1c(C2CCCN2c2nc(-c3ccc(Cl)cc3)cs2)nc2cc(Cl)c(Cl)cc21 (stereo not given) | > 100 µM (inactive) | > 100 | > 100 | > 100
24 | C=C1C(=O)O[C@@H]2[C@H]1[C@@H](OC(=O)/C(C)=C/C)C/C(C)=C\C(=O)/C=C(\C)[C@@H]2O | 1.24 µM | 18.6 | 29 | 25.2
25 | O=C(CSCC(=O)Nc1ccccc1)N/N=C/c1c(O)ccc2ccccc12 | 31.9 µM | > 100 | > 100 | > 100
26 | Cn1c(O)c(/C=C2/C=CC=N2)c(=O)[nH]c1=O | 18.3 µM | > 100 | > 100 | > 100
27 | O=C1O/C(=C/c2ccccc2)N=C1c1ccccc1 | 1.34 µM | 16.9 | > 100 | 28.3
28 | O=c1cc(C(F)(F)F)c2sc(N3CCCCC3)nc2[nH]1 | 45.4 µM (inactive) | > 100 | > 100 | 49.3
29 | Cn1nnnc1Sc1ncnc2scc(-c3ccccc3)c12 | > 100 µM (inactive) | > 100 | > 100 | > 100
30 | CCCC(=O)Nc1nc(-c2ccccc2)ns1 | > 100 µM (inactive) | > 100 | > 100 | > 100
31 | CCOC(=O)c1c(C)nc2sc(C(=O)Nc3ccccc3)c(N)c2c1-c1ccc(OC)cc1 | > 100 µM (inactive) | > 100 | > 100 | > 100
32 | Cc1cccnc1NC(=O)c1c(O)c2cccc3c2n(c1=O)CCC3 | 94.4 µM (inactive) | > 100 | > 100 | > 100
33 | CSc1nc(-c2ccc(Cl)cc2)nn1S(=O)(=O)c1ccccc1 | 9.85 µM | > 100 | > 100 | > 100
34 | CN(C)c1ccc(/C=C/c2nc3ccccc3s2)cc1 | 8.97 µM | > 100 | > 100 | > 100
35 | COCCOC(=O)c1c(C)oc2ccc(OC(=O)c3c(OC)cccc3OC)cc12 | > 100 µM (inactive) | > 100 | > 100 | > 100
36 | O=C1/C(=C/c2ccncc2)CCc2ccccc21 | 16.8 µM (inactive) | 24.3 | 36.4 | 29.1
37 | Cc1nn(C)c(C)c1C1C(C#N)=C(N)OC2=C1C(=O)CCC2 (stereo not given) | > 100 µM (inactive) | > 100 | > 100 | > 100
38 | COc1ccc(-c2csc(NC(C)c3nc4cc(Cl)c(Cl)cc4n3CCCO)n2)cc1 (stereo not given) | 97.3 µM (inactive) | > 100 | > 100 | > 100
39 | O=C(O)CCCN1C(=O)/C(=C\c2ccc(-c3nc4ccccc4s3)o2)SC1=S | 24.3 µM | 60.4 | > 100 | > 100
40 | COc1ccc(-c2csc(Nc3ncccc3C)n2)cc1OC | 61.3 µM (inactive) | > 100 | > 100 | > 100
